Patent publication US20220162191A1, “SMALL MOLECULE MODULATORS OF IL-17” (LEO PHARMA A/S, priority 2019, published 2022)

target: T1, human IL-17AA (Homo sapiens, UniProt Q16552); assay: IL-8 release assay in human epithelial keratinocytes adult (HEKa); type: cell-based; conditions: 3 ng/ml human IL-17AA + 10 ng/ml human TNFalpha, 68-72 h, IL-8 by HTRF, read-out: Rel EC50 L-8 release assay
T1 construct: host or cells: HEK (human embryonic kidney) cells
T1 sequence (Q16552 24-155) 1: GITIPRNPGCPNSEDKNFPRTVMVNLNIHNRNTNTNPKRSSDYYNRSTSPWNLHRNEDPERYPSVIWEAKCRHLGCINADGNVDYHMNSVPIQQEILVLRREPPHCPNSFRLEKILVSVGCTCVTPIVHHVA
T1 sequence (Q16552 24-155) 2: T1 sequence (Q16552 24-155) 1
Experimental: Example: IL-8 release assay in human epithelial keratinocytes adult (HEKa) Keratinocytes were seeded at 3500 cells/well in 384-well ViewPlates (Perkin Elmer) in Epilife medium (Thermo Fisher) containing human keratinocyte growth supplement (HKGS) without hydrocortisone and incubated in a humid incubator at 37° C., 5% CO2, overnight. The following day growth medium was removed and 25 μl fresh Epilife 10 medium added. 75 nl test compound in 100% DMSO was added into each well reserved
for test compounds, by the use of acoustic pipetting. The remaining wells received an equal volume of DMSO only, as vehicle control, or terfenadine in DMSO, as a positive control for any cytotoxic compounds. Subsequently, another 25 μl Epilife medium was added to each well. Finally, wells containing test compounds and wells prepared to yield 15 maximum stimulation received 25 μl of 9 ng/ml recombinant, human embryonic kidney cell (HEK)-derived human IL-17AA+30 ng/ml human TNF-alpha, in Epilife medium. Wells prepared to define 100% inhibition of IL-17 effects received 25 μl of 30 ng/ml human TNF-alpha alone, in Epilife medium. Final concentrations were 3 ng/ml HEKhuman IL-17AA+10 ng/ml human TNFalpha (maximum stimulation) and 10 ng/ml 20 human TNFalpha alone (100% inhibition, Emax), respectively. Cells were incubated for 68-72 h in the incubator. IL-8 released from the cells was measured by the use of a commercial homogenous time-resolved fluorescence (HTRF) assay (CisBio). 2 μl cell culture supernatant was transferred to a 384-well Proxiplate. 5 μl HTRF reagent was added and the plates incubated sealed in the dark for 3-22 h at room temperature. Time resolved fluorescence was read at 665 vs 620 nm, with excitation at 320 nm, and IL-8 levels calculated as percent of controls. Reduction of the amount of secreted IL-8 indicates decreased IL-17 signaling. Concentration response curves were fitted by the use of a four-parameter logistic equation. Relative IC50 and Emax were reported from 5 curves showing acceptable fit (r2>0.9). Cytotoxicity was measured in the cell-containing
Compounds of the present invention were tested in the IL-8 release assay in human epithelial keratinocytes.

First: Cc1n[nH]c(C)c1-c1ccc(NC(=O)[C@@H](NC(=O)C2(F)CC2)[C@@H]2CCc3ccc(-c4ccnc(N5C[C@@H]6C[C@H]5CO6)n4)cc32)cc1 [Example 367, N-[(1S)-2-[4-(3,5-dimethyl-1H-pyrazol-4-yl)anilino]-1-[(1R)-6-[2-[(1S,4S)-2-oxa-5-azabicyclo[2.2.1]heptan-5-yl]pyrimidin-4-yl]indan-1-yl]-2-oxo-ethyl]-1-fluoro-cyclopropanecarboxamide]
Second: Cc1nc(-c2ccc3c(c2)[C@H]([C@H](NC(=O)C2(F)CC2)C(=O)Nc2ccc(-c4c(C)n[nH]c4C)cc2)CC3)cc(N2C[C@@H]3C[C@H]2CO3)n1 [Example 366, N-[(1S)-2-[4-(3,5-dimethyl-1H-pyrazol-4-yl)anilino]-1-[(1R)-6-[2-methyl-6-[(1S,4S)-2-oxa-5-azabicyclo[2.2.1]heptan-5-yl]pyrimidin-4-yl]indan-1-yl]-2-oxo-ethyl]-1-fluoro-cyclopropanecarboxamide]
The EC50 of the first is lower: under 0.1 µM for the first, 0.1 to 1 µM for the second. The first is the more potent here.

Cc1nocc1C(=O)N[C@@H](Cc1cc(-c2ccc(=O)n(C(C)C)c2)ccc1Cl)C(=O)Nc1ccc(-c2cncn2C)c(O)c1 [Example 132, N-[(1S)-1-[[2-chloro-5-(1-isopropyl-6-oxo-3-pyridyl)phenyl]methyl]-2-[3-hydroxy-4-(3-methylimidazol-4-yl)anilino]-2-oxo-ethyl]-3-methyl-isoxazole-4-carboxamide] and Cc1nocc1C(=O)N[C@@H](Cc1cc(-c2ccnc(C(O)C3CC3)c2)ccc1Cl)C(=O)Nc1ccc(-c2cncn2C)cc1 (stereo partly drawn) [Example 123, N-[(1S)-1-[[2-chloro-5-[2-[cyclopropyl(hydroxy)methyl]-4-pyridyl]phenyl]methyl]-2-[4-(3-methylimidazol-4-yl)anilino]-2-oxo-ethyl]-3-methyl-isoxazole-4-carboxamide] cannot be ordered by EC50: under 0.1 µM for the first, under 0.1 µM for the second.

Cc1n[nH]c(C)c1-c1ccc(NC(=O)[C@@H](NC(=O)c2ccnn2C)[C@@H]2CCCc3ccc(-c4ccc5c(c4)CN(C)C5)cc32)cc1 [Example 37, N-[(1S)-2-[4-(3,5-dimethyl-1H-pyrazol-4-yl)anilino]-1-[(1R)-7-(2-methylisoindolin-5-yl)tetralin-1-yl]-2-oxo-ethyl]-2-methyl-pyrazole-3-carboxamide] and Cc1n[nH]c(C)c1-c1ccc(NC(=O)[C@@H](NC(=O)c2ccnn2C)[C@@H]2CCCc3ccc(-c4cccc(CN5CCC5)c4)cc32)cc1 [Example 388, N-[(1S)-1-[(1R)-7-[3-(azetidin-1-ylmethyl)phenyl]tetralin-1-yl]-2-[4-(3,5-dimethyl-1H-pyrazol-4-yl)anilino]-2-oxo-ethyl]-2-methyl-pyrazole-3-carboxamide] cannot be ordered by EC50: under 0.1 µM for the first, under 0.1 µM for the second.

CC(C)n1cc(-c2ccc(Cl)c(CC(NC(=O)c3ccnn3C)C(=O)Nc3ccc(-c4cnn[nH]4)cc3)c2)ccc1=O (centres unmarked) [Example 83, N-[1-[[2-chloro-5-(1-isopropyl-6-oxo-3-pyridyl)phenyl]methyl]-2-oxo-2-[4-(1H-triazol-5-yl)anilino]ethyl]-2-methyl-pyrazole-3-carboxamide] and CC(C)n1cc(-c2ccc(Cl)c(C[C@H](NC(=O)c3ccnn3C)C(=O)Nc3ccc(-c4cn[nH]c4)c(F)c3)c2)ccc1=O [Example 138, N-[(1S)-1-[[2-chloro-5-(1-isopropyl-6-oxo-3-pyridyl)phenyl]methyl]-2-[3-fluoro-4-(1H-pyrazol-4-yl)anilino]-2-oxo-ethyl]-2-methyl-pyrazole-3-carboxamide] fall in the same range of EC50: 0.1 to 1 µM for the first, 0.1 to 1 µM for the second.

First: Cc1cc(-c2ccc(Cl)c(CC(NC(=O)c3ccnn3C)C(=O)Nc3ccc(-c4nncn4C4CC4)cc3)c2)ccn1 (centres unmarked) [Example 73, N-[1-[[2-chloro-5-(2-methyl-4-pyridyl)phenyl]methyl]-2-[4-(4-cyclopropyl-1,2,4-triazol-3-yl)anilino]-2-oxo-ethyl]-2-methyl-pyrazole-3-carboxamide]
Second: CC(C)Oc1cccc(-c2ccc(Cl)c(CC(NC(=O)c3ccnn3C)C(=O)Nc3ccc(-c4nncn4C)cc3)c2)c1 (centres unmarked) [Example 122, N-[1-[[2-chloro-5-(3-isopropoxyphenyl)phenyl]methyl]-2-[4-(4-methyl-1,2,4-triazol-3-yl)anilino]-2-oxo-ethyl]-2-methyl-pyrazole-3-carboxamide]
The EC50 of the first is higher: over 1 µM for the first, 0.1 to 1 µM for the second.

Cc1nocc1C(=O)NC(Cc1cc(-c2cccc(C(=O)N3CCC3)c2)ccc1Cl)C(=O)Nc1ccc(-c2nncn2C)cc1 (centres unmarked) [Example 113, N-[1-[[5-[3-(azetidine-1-carbonyl)phenyl]-2-chloro-phenyl]methyl]-2-[4-(4-methyl-1,2,4-triazol-3-yl)anilino]-2-oxo-ethyl]-3-methyl-isoxazole-4-carboxamide] and CN(C)Cc1cc(-c2ccc(Cl)c(CC(NC(=O)c3ccnn3C)C(=O)Nc3ccc(-c4nncn4C)cc3)c2)ccc1O (centres unmarked) [Example 139, N-[1-[[2-chloro-5-[3-(dimethylaminomethyl)-4-hydroxy-phenyl]phenyl]methyl]-2-[4-(4-methyl-1,2,4-triazol-3-yl)anilino]-2-oxo-ethyl]-2-methyl-pyrazole-3-carboxamide] cannot be ordered by EC50: over 1 µM for the first, over 1 µM for the second.

CC(c1cccc(-c2ccc(=O)n(C(C)C)c2)c1)[C@H](NC(=O)c1ccnn1C)C(=O)Nc1ccc(-c2cncn2C)cc1 (stereo partly drawn) [Example 56, N-[(1S)-2-[3-(1-isopropyl-6-oxo-3-pyridyl)phenyl]-1-[[4-(3-methylimidazol-4-yl)phenyl]carbamoyl]propyl]-2-methyl-pyrazole-3-carboxamide] and CC(C)n1cc(-c2ccc(Cl)c(C[C@H](NC(=O)C3(C(F)(F)F)CC3)C(=O)Nc3ccc(-c4nncn4C)cc3)c2)ccc1=O [Example 117, N-[(1S)-1-[[2-chloro-5-(1-isopropyl-6-oxo-3-pyridyl)phenyl]methyl]-2-[4-(4-methyl-1,2,4-triazol-3-yl)anilino]-2-oxo-ethyl]-1-(trifluoromethyl) cyclopropanecarboxamide] cannot be ordered by EC50: over 1 µM for the first, over 1 µM for the second.

First: Cc1cnn(C)c1-c1ccc(NC(=O)[C@@H](NC(=O)C2(F)CC2)[C@@H]2CCc3ccc(-c4cc(N5C[C@@H]6C[C@H]5CO6)cnn4)cc32)cc1 [Example 383, N-[(1S)-2-[4-(2,4-dimethylpyrazol-3-yl)anilino]-1-[(1R)-6-[5-[(1S,4S)-2-oxa-5-azabicyclo[2.2.1]heptan-5-yl]pyridazin-3-yl]indan-1-yl]-2-oxo-ethyl]-1-fluoro-cyclopropanecarboxamide]
Second: Cc1n[nH]c(C)c1-c1ccc(NC(=O)[C@@H](NC(=O)C2(F)CC2)[C@@H]2CCc3ccc(-c4cnnc(C5CC5)c4)cc32)cc1 [Example 381, N-[(1S)-1-[(1R)-6-(6-cyclopropylpyridazin-4-yl)indan-1-yl]-2-[4-(3,5-dimethyl-1H-pyrazol-4-yl)anilino]-2-oxo-ethyl]-1-fluoro-cyclopropanecarboxamide]
The EC50 of the first is higher: over 1 µM for the first, 0.1 to 1 µM for the second.

With Cc1ncn(C)c1-c1ccc(NC(=O)[C@@H](NC(=O)C2(F)CC2)[C@@H]2CCCc3ccc(-c4ccnc(N5C[C@H]6C[C@@H]5CN6)c4)cc32)cc1 [Example 389, N-[(1S)-1-[(1R)-7-[2-[(1R,4R)-2,5-diazabicyclo[2.2.1]heptan-2-yl]-4-pyridyl]tetralin-1-yl]-2-[4-(3,5-dimethylimidazol-4-yl)anilino]-2-oxo-ethyl]-1-fluoro-cyclopropanecarboxamide] the EC50 was 0.1 to 1 µM.
